Data: patent US20240287076A1, “COMPOUNDS FOR TARGETING DEGRADATION OF BRUTON'S TYROSINE KINASE” (BIOGEN MA INC., priority 2021, published 2024)

target: T1, BTK (Homo sapiens, UniProt Q06187); test: BTK degradation assay using the HiBiT Method (Nano-Glo HiBiT Lytic Assay, GM01501.3 cells); assay type: cell-based; details: HiBiT Degradation on GM01501.3 BTK @ 6 hours
T1 construct: The GM01501.3 cell line endogenously expresses BTK with a HiBiT fusion tag via CRISPR knock-in at its C-terminal region; endogenous in cells; host or cells: GM01501.3 (GM01501 cells engineered by CRISPR knock-in of HiBiT at the BTK locus)
Outline: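 Degradation read-out: HiBiT luminescence after lytic reagent addition, giving DC50. Compounds dosed from 10 μM in 11 half-log steps (duplicate) onto GM01501.3 cells, whose endogenous BTK carries a C-terminal HiBiT knock-in tag; 6 h exposure, 37 °C, 5% CO2.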

T1 sequence (Q06187 whole entry, the tested form may be a part): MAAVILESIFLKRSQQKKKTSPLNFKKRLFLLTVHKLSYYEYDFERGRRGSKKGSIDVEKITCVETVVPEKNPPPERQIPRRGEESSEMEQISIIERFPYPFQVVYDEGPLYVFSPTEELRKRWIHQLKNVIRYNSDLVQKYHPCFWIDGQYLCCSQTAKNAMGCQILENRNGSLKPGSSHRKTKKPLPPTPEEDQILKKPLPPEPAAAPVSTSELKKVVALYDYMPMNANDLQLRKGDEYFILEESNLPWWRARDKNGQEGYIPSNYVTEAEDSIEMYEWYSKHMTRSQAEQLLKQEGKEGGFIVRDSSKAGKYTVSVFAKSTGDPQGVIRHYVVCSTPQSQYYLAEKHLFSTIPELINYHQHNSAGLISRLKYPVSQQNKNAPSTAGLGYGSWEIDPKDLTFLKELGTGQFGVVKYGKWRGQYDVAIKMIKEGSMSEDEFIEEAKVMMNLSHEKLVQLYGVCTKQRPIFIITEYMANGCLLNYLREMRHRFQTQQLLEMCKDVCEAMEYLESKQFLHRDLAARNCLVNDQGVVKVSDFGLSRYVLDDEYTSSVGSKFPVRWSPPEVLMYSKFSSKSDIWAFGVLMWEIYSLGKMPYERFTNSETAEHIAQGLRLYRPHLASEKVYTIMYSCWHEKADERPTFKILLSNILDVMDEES

Compound | DC50 [nM]
Cc1cc(-c2ncnn3cc(-c4ccc(N5CCC(c6ccc(C7CCC(=O)NC7=O)cc6)CC5)cc4)cc23)ccc1CNC(=O)c1noc(C(C)(C)C)n1 (stereo not drawn) [Example 146, 5-tert-butyl-N-[[4-[6-[4-[4-[4-(2,6-dioxo-3-piperidyl)phenyl]-1-piperidyl]phenyl]pyrrolo[2,1-f][1,2,4]triazin-4-yl]-2-methyl-phenyl]methyl]-1,2,4-oxadiazole-3-carboxamide] | 100 to 500
Cc1cc(-c2ncnn3cc(-c4ccc(COCCCc5ccc(NC6CCC(=O)NC6=O)cc5)cc4)cc23)ccc1CNC(=O)c1noc(C(C)(C)C)n1 (stereo not drawn) [Example 147, 5-tert-butyl-N-[[4-[6-[4-[3-[4-[(2,6-dioxo-3-piperidyl)amino]phenyl]propoxymethyl]phenyl]pyrrolo[2,1-f][1,2,4]triazin-4-yl]-2-methyl-phenyl]methyl]-1,2,4-oxadiazole-3-carboxamide] | 100 to 500
Cc1cc(-c2ncnn3cc(CCCCN4CC(c5ccc(NC6CCC(=O)NC6=O)cc5)C4)cc23)ccc1CNC(=O)c1noc(C(C)(C)C)n1 (stereo not drawn) [Example 148, 5-tert-butyl-N-[[4-[6-[4-[3-[4-[(2,6-dioxo-3-piperidyl)amino]phenyl]azetidin-1-yl]butyl]pyrrolo[2,1-f][1,2,4]triazin-4-yl]-2-methyl-phenyl]methyl]-1,2,4-oxadiazole-3-carboxamide] | 100 to 500
Cc1cc(-c2ncnn3cc(-c4ccc(CCCCc5ccc(NC6CCC(=O)NC6=O)cc5)cc4)cc23)ccc1CNC(=O)c1noc(C(C)(C)C)n1 (stereo not drawn) [Example 149, 5-tert-butyl-N-[[4-[6-[4-[4-[4-[(2,6-dioxo-3-piperidyl)amino]phenyl]butyl]phenyl]pyrrolo[2,1-f][1,2,4]triazin-4-yl]-2-methyl-phenyl]methyl]-1,2,4-oxadiazole-3-carboxamide] | 100 to 500
Cc1cc(-c2ncnn3cc(-c4ccc(CN(C)CC(F)(F)Cc5ccc(NC6CCC(=O)NC6=O)cc5)cc4)cc23)ccc1CNC(=O)c1noc(C(C)(C)C)n1 (stereo not drawn) [Example 150, 5-tert-butyl-N-[[4-[6-[4-[[[3-[4-[(2,6-dioxo-3-piperidyl)amino]phenyl]-2,2-difluoro-propyl]-methyl-amino]methyl]phenyl]pyrrolo[2,1-f][1,2,4]triazin-4-yl]-2-methyl-phenyl]methyl]-1,2,4-oxadiazole-3-carboxamide] | 100 to 500
Cc1cc(-c2ncnn3cc(CCCCc4ccc(-c5ccc(C6CCC(=O)NC6=O)cc5)cc4)cc23)ccc1CNC(=O)c1noc(C(C)(C)C)n1 (stereo not drawn) [Example 151, 5-tert-butyl-N-[[4-[6-[4-[4-[4-(2,6-dioxo-3-piperidyl)phenyl]phenyl]butyl]pyrrolo[2,1-f][1,2,4]triazin-4-yl]-2-methyl-phenyl]methyl]-1,2,4-oxadiazole-3-carboxamide] | 100 to 500
Cc1c(NC(=O)c2cc3c(s2)CCCC3)cc(F)cc1-c1ncnn2cc(-c3ccc(CN4CCC(c5ccc(NC6CCC(=O)NC6=O)cc5)CC4)cc3)cc12 (stereo not drawn) [Example 152, N-(3-(6-(4-((4-(4-((2,6-dioxopiperidin-3-yl)amino)phenyl)piperidin-1-yl)methyl)phenyl)pyrrolo[2,1-f][1,2,4]triazin-4-yl)-5-fluoro-2-methylphenyl)-4,5,6,7-tetrahydrobenzo[b]thiophene-2-carboxamide] | < 100
Cc1c(NC(=O)c2ccc(C(C)(C)O)cc2)cc(F)cc1-c1ncnn2cc(-c3ccc(CN4CCC(c5ccc(NC6CCC(=O)NC6=O)cc5)CC4)cc3)cc12 (stereo not drawn) [Example 153, N-[3-[6-[4-[[4-[4-[(2,6-dioxo-3-piperidyl)amino]phenyl]-1-piperidyl]methyl]phenyl]pyrrolo[2,1-f][1,2,4]triazin-4-yl]-5-fluoro-2-methyl-phenyl]-4-(1-hydroxy-1-methyl-ethyl)benzamide] | < 100
Cc1cc(-c2ccnn3cc(-c4ccc(CN5CCC(c6ccc(NC7CCC(=O)NC7=O)cc6)CC5)cc4)cc23)ccc1CNC(=O)c1noc(C(C)(C)C)n1 (stereo not drawn) [Example 154, 5-tert-butyl-N-[[4-[6-[4-[[4-[4-[(2,6-dioxo-3-piperidyl)amino]phenyl]-1-piperidyl]methyl]phenyl]pyrrolo[1,2-b]pyridazin-4-yl]-2-methyl-phenyl]methyl]-1,2,4-oxadiazole-3-carboxamide] | < 100
Cc1cc(-c2ccnn3cc(CCN4CCC(c5ccc(NC6CCC(=O)NC6=O)cc5)CC4)cc23)ccc1CNC(=O)c1noc(C(C)(C)C)n1 (stereo not drawn) [Example 155, 5-tert-butyl-N-[[4-[6-[2-[4-[4-[(2,6-dioxo-3-piperidyl)amino]phenyl]-1-piperidyl]ethyl]pyrrolo[1,2-b]pyridazin-4-yl]-2-methyl-phenyl]methyl]-1,2,4-oxadiazole-3-carboxamide] | < 100
Cc1cc(-c2ccnn3cc(CCCCN4CCC(c5ccc(NC6CCC(=O)NC6=O)cc5)CC4)cc23)ccc1CNC(=O)c1noc(C(C)(C)C)n1 (stereo not drawn) [Example 156, 5-tert-butyl-N-[[4-[6-[4-[4-[4-[(2,6-dioxo-3-piperidyl)amino]phenyl]-1-piperidyl]butyl]pyrrolo[1,2-b]pyridazin-4-yl]-2-methyl-phenyl]methyl]-1,2,4-oxadiazole-3-carboxamide] | < 100
Cc1cc(-c2ccnc3sc(-c4ccc(CN5CCC(c6ccc(NC7CCC(=O)NC7=O)cc6)CC5)cc4)cc23)ccc1CNC(=O)c1noc(C(C)(C)C)n1 (stereo not drawn) [Example 157, 5-tert-butyl-N-[[4-[2-[4-[[4-[4-[(2,6-dioxo-3-piperidyl)amino]phenyl]-1-piperidyl]methyl]phenyl]thieno[2,3-b]pyridin-4-yl]-2-methyl-phenyl]methyl]-1,2,4-oxadiazole-3-carboxamide] | 100 to 500
Cc1cc(-c2ccnc3sc(CCCCN4CCC(c5ccc(NC6CCC(=O)NC6=O)cc5)CC4)cc23)ccc1CNC(=O)c1noc(C(C)(C)C)n1 (stereo not drawn) [Example 158, 5-tert-butyl-N-[[4-[2-[4-[4-[4-[(2,6-dioxo-3-piperidyl)amino]phenyl]-1-piperidyl]butyl]thieno[2,3-b]pyridin-4-yl]-2-methyl-phenyl]methyl]-1,2,4-oxadiazole-3-carboxamide] | 100 to 500
Cc1cc(-c2ccnc3nn(-c4ccc(CN5CCC(c6ccc(NC7CCC(=O)NC7=O)cc6)CC5)cc4)cc23)ccc1CNC(=O)c1noc(C(C)(C)C)n1 (stereo not drawn) [Example 159, 5-tert-butyl-N-[[4-[2-[4-[[4-[4-[(2,6-dioxo-3-piperidyl)amino]phenyl]-1-piperidyl]methyl]phenyl]pyrazolo[3,4-b]pyridin-4-yl]-2-methyl-phenyl]methyl]-1,2,4-oxadiazole-3-carboxamide] | 100 to 500
Cc1cc(-c2ccnc3nn(CCCCN4CCC(c5ccc(NC6CCC(=O)NC6=O)cc5)CC4)cc23)ccc1CNC(=O)c1noc(C(C)(C)C)n1 (stereo not drawn) [Example 160, 5-tert-butyl-N-[[4-[2-[4-[4-[4-[(2,6-dioxo-3-piperidyl)amino]phenyl]-1-piperidyl]butyl]pyrazolo[3,4-b]pyridin-4-yl]-2-methyl-phenyl]methyl]-1,2,4-oxadiazole-3-carboxamide] | > 1000
Cc1cc(-c2ccnc3[nH]c(-c4ccc(CN5CCC(c6ccc(NC7CCC(=O)NC7=O)cc6)CC5)cc4)cc23)ccc1CNC(=O)c1noc(C(C)(C)C)n1 (stereo not drawn) [Example 161, 5-tert-butyl-N-[[4-[2-[4-[[4-[4-[(2,6-dioxo-3-piperidyl)amino]phenyl]-1-piperidyl]methyl]phenyl]-1H-pyrrolo[2,3-b]pyridin-4-yl]-2-methyl-phenyl]methyl]-1,2,4-oxadiazole-3-carboxamide] | < 100
Cc1cc(-c2ccnc3cc(-c4ccc(CN5CCC(c6ccc(NC7CCC(=O)NC7=O)cc6)CC5)cc4)nn23)ccc1CNC(=O)c1noc(C(C)(C)C)n1 (stereo not drawn) [Example 162, 5-tert-butyl-N-[[4-[2-[4-[[4-[4-[(2,6-dioxo-3-piperidyl)amino]phenyl]-1-piperidyl]methyl]phenyl]pyrazolo[1,5-a]pyrimidin-7-yl]-2-methyl-phenyl]methyl]-1,2,4-oxadiazole-3-carboxamide] | < 100
Cc1cc(-c2ccnc3cc(CCCCN4CCC(c5ccc(NC6CCC(=O)NC6=O)cc5)CC4)nn23)ccc1CNC(=O)c1noc(C(C)(C)C)n1 (stereo not drawn) [Example 163, 5-tert-butyl-N-[[4-[2-[4-[4-[4-[(2,6-dioxo-3-piperidyl)amino]phenyl]-1-piperidyl]butyl]pyrazolo[1,5-a]pyrimidin-7-yl]-2-methyl-phenyl]methyl]-1,2,4-oxadiazole-3-carboxamide] | < 100
Cn1nc(N2CCC(=O)NC2=O)c2ccc(C3CCN(Cc4ccc(-c5cc6nccc(-c7ccc(CNC(=O)c8noc(C(C)(C)C)n8)c(F)c7)n6n5)cc4)CC3)cc21 [Example 164, 5-tert-butyl-N-[[4-[2-[4-[[4-[3-(2,4-dioxohexahydropyrimidin-1-yl)-1-methyl-indazol-6-yl]-1-piperidyl]methyl]phenyl]pyrazolo[1,5-a]pyrimidin-7-yl]-2-fluoro-phenyl]methyl]-1,2,4-oxadiazole-3-carboxamide] | < 100
Cn1nc(N2CCC(=O)NC2=O)c2ccc(C3CCN(Cc4ccc(-c5cc6nccc(-c7ccc(CNC(=O)N8CC(OC(C)(C)C)C8)c(F)c7)n6n5)cc4)CC3)cc21 [Example 165, 3-tert-butoxy-N-[[4-[2-[4-[[4-[3-(2,4-dioxohexahydropyrimidin-1-yl)-1-methyl-indazol-6-yl]-1-piperidyl]methyl]phenyl]pyrazolo[1,5-a]pyrimidin-7-yl]-2-fluoro-phenyl]methyl]azetidine-1-carboxamide] | < 100
Cn1nc(N2CCC(=O)NC2=O)c2ccc(C3CCN(Cc4ccc(-c5cc6nccc(-c7ccc(CNC(=O)c8noc(C(C)(C)C)n8)c(F)c7)n6n5)cc4F)CC3)cc21 [Example 166, 5-tert-butyl-N-[[4-[2-[4-[[4-[3-(2,4-dioxohexahydropyrimidin-1-yl)-1-methyl-indazol-6-yl]-1-piperidyl]methyl]-3-fluoro-phenyl]pyrazolo[1,5-a]pyrimidin-7-yl]-2-fluoro-phenyl]methyl]-1,2,4-oxadiazole-3-carboxamide] | < 100
